Here are results for 19 compounds from patent US11352349B2, “Type II topoisomerase inhibitors and methods of making and using thereof” (Ohio State Innovation Foundation, priority 2017, dated 2022).

Converted amounts (≈) assume the structure as drawn.

In one test the target is T1, human topo II (Homo sapiens, UniProt P11388).
T1 construct: purchased Inspiralis, Norwich, UK
The test can be described thus: Topoisomerase II (alpha) decatenation assay. The note with it: activity remaining at 100 μM compound; read-out: hTopoll (% activity remaining at 100 μM). The test is classed as biochemical. The procedure:
(§1) A subset of analogs was used to assess the degree of inhibition of DNA gyrase or TopoIV (Inspiralis, Norwich, UK), both to establish the mechanism of action and to evaluate the relative balance of inhibitory activities (Table 1). A subset of compound was also assayed to determine the degree of inhibition of human topoisomerase II (Inspiralis, Norwich, UK)).
(§2) In all experiments, the activity of the enzymes was determined prior to the testing of the compounds and 1 unit (U) was defined as the amount of enzyme required to just fully supercoil, relax or decatenate the substrate (see explanation of gels). This amount of enzyme was initially used in determination of control inhibitor activity. These experiments were performed in duplicate.
(§3) For all assays the final DMSO concentration was 1%. 10 mM stocks of the compounds were serially diluted into 10% DMSO at 1 mM, 0.5 mM, 0.25 mM, 0.1 mM, 0.05 mM, 0.01 mM, 0.005 mM, 0.001 mM, 0.0005 mM, 0.0001 mM and 0.00005 mM. 3.0 μl of each dilution was added to a 30 μl assay.
(§4) Bands were visualised by ethidium staining for 20 minutes and destaining for 20 minutes. Gels were scanned using documentation equipment (GeneGenius, Syngene, Cambridge, UK) and % inhibition levels (where appropriate) were obtained with gel scanning software. (GeneTools, Syngene, Cambridge, UK)
Topoisomerase II (Alpha) Decatenation Assay
Each reaction was stopped by the addition of 30 μl chloroform/iso-amyl alcohol (26:1) and 30 μl Stop Dye, before being loaded on a 1.0% TAE gel run at 90V for 2 hours.

A further test deals with S. aureus ATCC 29213. The test is described as follows: MIC by broth microdilution (CLSI), quality control strain S. aureus ATCC 29213. The note with it: multiple values when multiple MIC assays were conducted; for MIC: Staphylococcus aureus, ATCC29213, S. aureus ATCC 29213. The test is classed as cell-based, Staphylococcus aureus. The procedure:
Minimum inhibitory concentrations were determined using the quality control strain S. aureus ATCC 29213 (Table 1) by the broth microdilution method according to guidelines of the Clinical and Laboratory Standards Institute (CLSI) (Cockerill, F. R.; et al., 2012, Methods for dilution antimicrobial susceptibility tests for bacteria that grow aerobically; approved standard-ninth edition. MA07-A9. Clinical and Laboratory Standard Institute, Wayne, Pa.). […] Published quality control ranges for gepotidacin and ciprofloxacin were used to validate each assay. MICs for selected compounds were also determined using a USA 300 strain of MRSA (Hidron, et al., Lancet Infect. Dis. 2009, 9:384-392). Vancomycin was used as an additional control.
For orientation: Broth dilution looks for growth in wells or tubes with falling amounts of substance.

Test [1] concerns the target T2, Staphylococcus aureus gyrase (Staphylococcus aureus, UniProt P0A0K8+P20831).
T2 construct: purchased Inspiralis, Norwich, UK
The test can be described thus: Staphylococcus aureus gyrase supercoiling assay. The test is classed as biochemical. The settings on record: S. aureus DNA gyrase supercoiling; read-out: Gyrase IC50. The method, then: as §1, §2, §3, §4
Staphylococcus aureus gyrase supercoiling
1 U of DNA gyrase was incubated with 0.5 μg of relaxed pBR322 DNA in a 30 μl reaction at 37° C. for 30 minutes under the following conditions: 40 mM HEPES. KOH (pH 7.6), 10 mM magnesium acetate, 10 mM DTT, 2 mM ATP, 500 mM potassium glutamate and 0.05 mg/ml BSA.
Each reaction was stopped by the addition of 30 μl chloroform/iso-amyl alcohol (26:1) and 30 μl Stop Dye (40% sucrose (w/v), 100 mM Tris.HCl (pH 7.5), 10 mM EDTA, 0.5 μg/ml bromophenol blue), before being loaded on a 1.0% TAE gel run at 70V for 2 hours.

Test [2] has as its target T3, Staphylococcus aureus Topo IV (Staphylococcus aureus, UniProt P0C1S7+P0C1U9).
T3 construct: purchased Inspiralis, Norwich, UK
The test can be described thus: Staphylococcus aureus Topo IV decatenation assay. The settings on record: S. aureus Topo IV decatenation; read-out: TopolV Decat IC50. The class given is biochemical. The method, then: as §1, §2, §3, §4
Staphylococcus aureus Topo IV Decatenation Assay
1 U of Topo IV was incubated with 200 ng kDNA DNA in a 30 μl reaction at 37° C. for 30 minutes under the following conditions: 50 mM Tris.HCl (7.5), 5 mM MgCl2, 5 mM DTT, 1.5 mM ATP, 350 mM potassium glutamate and 0.05 mg/ml BSA.
Each reaction was stopped by the addition of 30 μl chloroform/iso-amyl alcohol (26:1) and 30 μl Stop Dye, before being loaded on a 1.0% TAE gel run at 70V for 2 hours.

The next test concerns USA 300 strain of MRSA. The test is described as follows: MIC by broth microdilution, USA 300 strain of MRSA. The test is classed as cell-based, Staphylococcus aureus. The settings on record: Staphylococcus aureus, multiple values when multiple MIC assays were conducted, read-out: MIC USA300. The method, then:
Minimum inhibitory concentrations were determined using the quality control strain S. aureus ATCC 29213 (Table 1) by the broth microdilution method according to guidelines of the Clinical and Laboratory Standards Institute (CLSI) (Cockerill, F. R.; et al., 2012, Methods for dilution antimicrobial susceptibility tests for bacteria that grow aerobically; approved standard-ninth edition. MA07-A9. Clinical and Laboratory Standard Institute, Wayne, Pa.). […] MICs for selected compounds were also determined using a USA 300 strain of MRSA (Hidron, et al., Lancet Infect. Dis. 2009, 9:384-392). Vancomycin was used as an additional control.

T1 sequence (P11388 whole entry): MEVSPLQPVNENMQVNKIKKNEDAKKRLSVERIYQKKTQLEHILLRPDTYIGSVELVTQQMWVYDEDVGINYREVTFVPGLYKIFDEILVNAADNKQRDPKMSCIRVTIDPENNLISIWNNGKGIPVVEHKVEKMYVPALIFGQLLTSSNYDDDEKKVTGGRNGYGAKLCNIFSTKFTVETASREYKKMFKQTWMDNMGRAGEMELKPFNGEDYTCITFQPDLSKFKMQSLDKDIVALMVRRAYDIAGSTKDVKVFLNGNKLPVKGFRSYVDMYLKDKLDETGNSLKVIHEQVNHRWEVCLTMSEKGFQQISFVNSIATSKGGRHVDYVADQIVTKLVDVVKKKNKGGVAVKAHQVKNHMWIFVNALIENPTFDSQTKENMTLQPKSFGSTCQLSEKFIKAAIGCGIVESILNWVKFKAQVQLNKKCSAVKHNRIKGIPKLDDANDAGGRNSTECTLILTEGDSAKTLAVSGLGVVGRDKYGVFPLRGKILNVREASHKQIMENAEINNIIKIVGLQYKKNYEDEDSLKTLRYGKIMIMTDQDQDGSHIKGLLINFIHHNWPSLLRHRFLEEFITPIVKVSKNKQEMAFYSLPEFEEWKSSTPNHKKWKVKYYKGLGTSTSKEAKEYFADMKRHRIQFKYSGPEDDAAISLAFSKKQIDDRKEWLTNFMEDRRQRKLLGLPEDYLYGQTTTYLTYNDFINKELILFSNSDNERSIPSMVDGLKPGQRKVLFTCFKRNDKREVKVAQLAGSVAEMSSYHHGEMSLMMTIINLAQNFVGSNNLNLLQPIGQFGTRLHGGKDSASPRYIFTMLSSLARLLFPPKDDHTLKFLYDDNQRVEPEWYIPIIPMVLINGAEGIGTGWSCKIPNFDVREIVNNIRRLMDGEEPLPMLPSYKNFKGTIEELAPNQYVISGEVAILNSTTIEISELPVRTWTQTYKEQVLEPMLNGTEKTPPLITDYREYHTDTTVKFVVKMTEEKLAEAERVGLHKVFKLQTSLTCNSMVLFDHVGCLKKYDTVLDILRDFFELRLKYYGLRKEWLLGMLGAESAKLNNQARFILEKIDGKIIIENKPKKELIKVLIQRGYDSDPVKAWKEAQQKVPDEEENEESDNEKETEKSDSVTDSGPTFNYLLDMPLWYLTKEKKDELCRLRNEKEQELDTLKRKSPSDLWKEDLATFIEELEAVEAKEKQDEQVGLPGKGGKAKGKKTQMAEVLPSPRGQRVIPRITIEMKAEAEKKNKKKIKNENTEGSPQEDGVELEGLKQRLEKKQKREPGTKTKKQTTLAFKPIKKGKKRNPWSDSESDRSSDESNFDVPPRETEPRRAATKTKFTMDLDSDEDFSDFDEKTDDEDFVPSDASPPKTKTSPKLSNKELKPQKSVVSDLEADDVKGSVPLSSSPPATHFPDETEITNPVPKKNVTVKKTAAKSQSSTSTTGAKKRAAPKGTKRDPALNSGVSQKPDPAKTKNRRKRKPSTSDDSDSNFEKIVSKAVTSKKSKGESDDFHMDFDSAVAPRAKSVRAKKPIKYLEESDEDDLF
T3 sequence (P0C1S7 whole entry): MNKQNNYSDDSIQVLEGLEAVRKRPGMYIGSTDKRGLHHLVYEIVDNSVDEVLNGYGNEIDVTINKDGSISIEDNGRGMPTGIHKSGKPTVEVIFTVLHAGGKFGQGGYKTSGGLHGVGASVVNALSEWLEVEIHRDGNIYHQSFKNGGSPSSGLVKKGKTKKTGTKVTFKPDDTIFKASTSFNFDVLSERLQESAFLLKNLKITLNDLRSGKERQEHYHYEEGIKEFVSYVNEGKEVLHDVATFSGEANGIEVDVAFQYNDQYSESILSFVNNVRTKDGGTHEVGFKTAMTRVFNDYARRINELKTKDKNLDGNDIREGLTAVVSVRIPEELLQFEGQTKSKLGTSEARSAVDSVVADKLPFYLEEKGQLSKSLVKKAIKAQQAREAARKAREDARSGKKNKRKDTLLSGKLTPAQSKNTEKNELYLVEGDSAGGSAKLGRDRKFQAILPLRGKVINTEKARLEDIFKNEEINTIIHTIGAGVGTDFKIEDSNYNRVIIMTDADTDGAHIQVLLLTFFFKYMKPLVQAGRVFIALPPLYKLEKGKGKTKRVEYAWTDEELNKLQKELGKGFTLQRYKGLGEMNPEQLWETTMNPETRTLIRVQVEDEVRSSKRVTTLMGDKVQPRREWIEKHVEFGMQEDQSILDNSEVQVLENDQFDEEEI
T3 sequence (P0C1U9 whole entry): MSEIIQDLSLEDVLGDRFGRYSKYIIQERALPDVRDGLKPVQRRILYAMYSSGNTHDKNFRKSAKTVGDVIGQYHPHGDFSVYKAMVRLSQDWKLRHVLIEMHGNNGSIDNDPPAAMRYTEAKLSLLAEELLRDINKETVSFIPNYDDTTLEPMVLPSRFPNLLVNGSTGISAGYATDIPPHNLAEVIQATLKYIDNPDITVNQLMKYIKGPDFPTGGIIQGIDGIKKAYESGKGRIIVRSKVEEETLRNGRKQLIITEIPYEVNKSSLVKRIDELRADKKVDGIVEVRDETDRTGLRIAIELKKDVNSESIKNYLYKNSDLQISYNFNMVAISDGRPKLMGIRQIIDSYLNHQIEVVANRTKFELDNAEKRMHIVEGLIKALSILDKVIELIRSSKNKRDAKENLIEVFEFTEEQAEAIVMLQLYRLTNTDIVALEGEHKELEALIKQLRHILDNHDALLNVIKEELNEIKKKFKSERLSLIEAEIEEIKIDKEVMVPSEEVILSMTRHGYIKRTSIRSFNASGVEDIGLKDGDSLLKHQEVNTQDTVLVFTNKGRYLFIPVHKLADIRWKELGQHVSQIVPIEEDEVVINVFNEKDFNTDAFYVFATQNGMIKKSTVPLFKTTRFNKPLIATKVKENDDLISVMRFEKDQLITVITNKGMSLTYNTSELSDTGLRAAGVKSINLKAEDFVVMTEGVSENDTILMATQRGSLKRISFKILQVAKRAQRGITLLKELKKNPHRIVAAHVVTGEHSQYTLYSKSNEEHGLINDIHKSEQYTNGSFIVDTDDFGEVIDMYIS
T2 sequence (P20831 whole entry): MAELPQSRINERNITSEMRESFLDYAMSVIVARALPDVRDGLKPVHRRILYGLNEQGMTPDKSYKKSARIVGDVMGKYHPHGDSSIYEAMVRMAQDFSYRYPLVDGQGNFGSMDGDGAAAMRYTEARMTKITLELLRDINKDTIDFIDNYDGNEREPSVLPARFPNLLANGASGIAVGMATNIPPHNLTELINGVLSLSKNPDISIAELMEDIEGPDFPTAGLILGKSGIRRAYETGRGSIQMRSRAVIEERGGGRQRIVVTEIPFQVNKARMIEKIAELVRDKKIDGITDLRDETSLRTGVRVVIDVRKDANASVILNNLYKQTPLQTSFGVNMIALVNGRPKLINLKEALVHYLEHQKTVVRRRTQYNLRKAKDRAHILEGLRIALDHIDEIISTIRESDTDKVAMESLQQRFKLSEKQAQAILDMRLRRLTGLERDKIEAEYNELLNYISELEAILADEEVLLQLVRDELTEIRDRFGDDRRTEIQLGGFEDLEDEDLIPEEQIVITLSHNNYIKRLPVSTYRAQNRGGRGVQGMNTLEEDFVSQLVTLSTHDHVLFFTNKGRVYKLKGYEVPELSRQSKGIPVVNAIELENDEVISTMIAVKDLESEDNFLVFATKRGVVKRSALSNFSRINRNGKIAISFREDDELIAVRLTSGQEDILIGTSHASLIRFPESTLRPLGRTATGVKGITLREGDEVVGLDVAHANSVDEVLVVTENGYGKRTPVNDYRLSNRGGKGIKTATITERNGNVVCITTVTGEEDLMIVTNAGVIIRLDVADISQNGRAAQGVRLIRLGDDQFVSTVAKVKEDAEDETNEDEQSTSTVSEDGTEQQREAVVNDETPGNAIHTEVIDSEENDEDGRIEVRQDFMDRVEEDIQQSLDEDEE
T2 sequence (P0A0K8 whole entry): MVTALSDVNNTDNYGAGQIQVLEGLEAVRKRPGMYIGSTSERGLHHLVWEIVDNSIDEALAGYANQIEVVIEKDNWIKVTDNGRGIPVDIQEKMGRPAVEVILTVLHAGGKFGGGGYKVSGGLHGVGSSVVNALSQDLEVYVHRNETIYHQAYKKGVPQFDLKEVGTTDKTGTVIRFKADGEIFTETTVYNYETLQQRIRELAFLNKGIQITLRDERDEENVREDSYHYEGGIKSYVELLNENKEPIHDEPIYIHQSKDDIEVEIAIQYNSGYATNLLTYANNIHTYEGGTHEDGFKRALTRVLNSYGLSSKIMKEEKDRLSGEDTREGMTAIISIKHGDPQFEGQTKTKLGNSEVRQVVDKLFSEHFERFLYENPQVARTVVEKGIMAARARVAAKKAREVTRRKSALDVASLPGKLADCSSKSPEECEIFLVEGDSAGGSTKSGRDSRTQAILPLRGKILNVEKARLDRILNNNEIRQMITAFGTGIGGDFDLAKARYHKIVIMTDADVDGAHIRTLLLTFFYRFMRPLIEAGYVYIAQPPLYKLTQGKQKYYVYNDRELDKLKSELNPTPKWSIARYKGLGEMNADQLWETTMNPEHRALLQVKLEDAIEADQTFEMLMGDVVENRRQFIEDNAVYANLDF

What is called remaining activity is the signal under treatment as a percentage of the control signal. As a reminder, the MIC is the smallest concentration in the dilution series that meets the test's criterion for growth inhibition. The term IC50 denotes the concentration that gives 50% inhibition. Regarding `COc1ccc2ncc(=O)n(CC[C@H]3OC[C@H](NCc4ccc5c(c4)OCCO5)CO3)c2c1` [AB-0002, 1-(2-(5-(((2,3-dihydrobenzo[b][1,4]dioxin-6-yl)methyl)amino)-1,3-trans-dioxan-2-yl)ethyl)-7-methoxyquinoxalin-2(1H)-one], the remaining activity at 100 µM at human topo II amounted to 97.5%. In the test on S. aureus ATCC 29213, this compound registered an MIC of 4 µg/mL (≈ 8.82 µM). In addition, the half-inhibitory concentration (IC50) in test [1] was 2010 nM; in test [2], above 100000 nM.
For the compound `COc1ccc2nccc(/C=C/[C@H]3OC[C@H](NCc4ccc(Cl)c(Cl)c4)CO3)c2c1` [AB-0009, N-(3,4-dichlorobenzyl)2-((E)-2-(6-methoxyquinolin-4-yl)vinyl)-trans-1,3-dioxan-5-amine], the minimum inhibitory concentration (MIC) was 0.5 µg/mL (≈ 1.12 µM) in the test with USA 300 strain of MRSA and at most 0.25 µg/mL in the test on S. aureus ATCC 29213.
With `COc1ccc2nccc(/C=C/[C@H]3OC[C@H](NCc4ccc5c(c4)OCCO5)CO3)c2c1` [AB-0010, N-((2,3-dihydrobenzo[b][1,4]dioxin-6-yl)methyl)-2-((E)-2-(6-methoxyquinolin-4-yl)vinyl)-trans-1,3-dioxan-5-amine], the MIC with USA 300 strain of MRSA and in the test with S. aureus ATCC 29213 was 1 µg/mL (≈ 2.3 µM) throughout. In addition, the “MIC 29213” value in the test with S. aureus ATCC 29213 (S. aureus ATCC 29213) is 2 µg/mL (≈ 4.6 µM).
Turning to `COc1ccc2ncc(F)c(CC[C@H]3OC[C@H](NCc4ccc(Cl)c(Cl)c4)CO3)c2n1` [AB-0017, N-(3,4-dichlorobenzyl)-2-(2-(3-fluoro-6-methoxy-1,5-naphthyridin-4-yl)ethyl)-trans-1,3-dioxan-5-amine], the MIC stood at 0.125 µg/mL (≈ 0.268 µM) in the test with USA 300 strain of MRSA and 0.25 µg/mL (≈ 0.536 µM) against S. aureus ATCC 29213.
For `COc1ccc2ncc(F)c(C(O)C[C@H]3OC[C@H](NCc4ccc(Cl)c(Cl)c4)CO3)c2c1` (stereo partly drawn) [AB-0019, 2-(5-((3,4-dichlorobenzyl)amino)-trans-1,3-dioxan-2-yl)-1-(3-fluoro-6-methoxyquinolin-4-yl)ethan-1-ol], the values for the MIC in the test with USA 300 strain of MRSA and in the test on S. aureus ATCC 29213 were 0.5 µg/mL (≈ 1.04 µM) and at most 0.25 µg/mL, respectively.
For the compound `COc1ccc2nccc(CC[C@H]3OC[C@H](NCc4ccc(F)c(Cl)c4)CO3)c2c1` [AB-0023, N-(3-chloro-4-fluorobenzyl)-2-(2-(6-methoxyquinolin-4-yl)ethyl)-trans-1,3-dioxan-5-amine], on human topo II, the remaining activity at 100 µM was determined as 97.7%. The MIC with S. aureus ATCC 29213 stood at 8 µg/mL (≈ 18.6 µM). The IC50 was 2100 nM in test [1] and above 100000 nM in test [2].
On the same counts, the results for `COc1ccc(CN[C@H]2CO[C@H](CCc3ccnc4ccc(OC)cc34)OC2)cc1` [AB-0031, N-(4-methoxybenzyl)-2-(2-(6-methoxyquinolin-4-yl)ethyl)-trans-1,3-dioxan-5-amine] are 98.7%, 4 µg/mL (≈ 9.79 µM), 1530 nM and above 100000 nM.
In the case of `COc1ccc2nccc(CC[C@H]3OC[C@H](NCc4ccc(C)cc4)CO3)c2c1` [AB-0044], the MIC with USA 300 strain of MRSA and against S. aureus ATCC 29213 was 1 µg/mL (≈ 2.55 µM) each time.
For `COc1ccc2ncc(F)c(C(O)C[C@H]3OC[C@H](NCc4cc5c(cn4)OCCO5)CO3)c2c1` (stereo partly drawn) [AB-0046], the remaining activity at 100 µM on human topo II was 88.3%. The MIC in the test with USA 300 strain of MRSA is 1 µg/mL (≈ 2.12 µM); with S. aureus ATCC 29213, 0.5 µg/mL (≈ 1.06 µM). Moreover, the IC50 in test [1] was 600 nM.
Turning to `COc1ccc2nccc(CC[C@H]3OC[C@H](NCc4ccc(C#N)cc4)CO3)c2c1` [AB-0047, 4-(((2-(2-(6-methoxyquinolin-4-yl)ethyl)-trans-1,3-dioxan-5-yl)amino)methyl)benzonitrile], the remaining activity at 100 µM at human topo II amounted to 88.4%. This compound also registered an MIC against S. aureus ATCC 29213 above 64 µg/mL. The values for the IC50 in test [1] and in test [2] were 13300 nM and above 100000 nM, respectively.
In the case of `COc1ccc2nccc(CC[C@H]3OC[C@H](NCc4ccc(C(F)(F)F)cc4)CO3)c2c1` [AB-0071, 2-(2-(6-methoxyquinolin-4-yl)ethyl)-N-(4-(trifluoromethyl)benzyl)-trans-1,3-dioxan-5-amine], the figures for the minimum inhibitory concentration (MIC) in the test with USA 300 strain of MRSA and against S. aureus ATCC 29213 were 2 µg/mL (≈ 4.48 µM) and 1 µg/mL (≈ 2.24 µM), respectively.
As to `COc1ccc2ncc(=O)n(CC(O)[C@H]3OC[C@H](NCc4ccc5c(c4)OCCO5)CO3)c2c1` (stereo partly drawn) [AB-0076, 1-(2-(5-(((2,3-dihydrobenzo[b][1,4]dioxin-6-yl)methyl)amino)-trans-1,3-dioxan-2-yl)-2-hydroxyethyl)-7-methoxyquinoxalin-2(1H)-one], in the test with USA 300 strain of MRSA, the MIC was found to be 1 µg/mL (≈ 2.13 µM).
For the compound `COc1ccc2ncc(=O)n(CC(O)[C@H]3OC[C@H](NCc4cc5c(cn4)OCCO5)CO3)c2c1` (stereo partly drawn) [AB-0077, 1-(2-(5-(((2,3-dihydro-[1,4]dioxino[2,3-c]pyridin-7-yl)methyl)amino)-trans-1,3-dioxan-2-yl)-2-hydroxyethyl)-7-methoxyquinoxalin-2(1H)-one], the MIC was found to be 2 µg/mL (≈ 4.25 µM) in the test with USA 300 strain of MRSA and 1 µg/mL (≈ 2.13 µM) in the test on S. aureus ATCC 29213.
On the same counts, the results for `COc1ccc2nccc(CC[C@H]3OC[C@H](NCc4ccc5c(c4)OCO5)CO3)c2c1` [AB-0079, N-(benzo[d][1,3]dioxol-5-ylmethyl)-2-(2-(6-methoxyquinolin-4-yl)ethyl)-trans-1,3-dioxan-5-amine] are 4 µg/mL (≈ 9.47 µM) and 2 µg/mL (≈ 4.73 µM).
Taken in the same sequence, the figures for `COc1ccc2nccc(CC[C@H]3OC[C@H](NCc4ccc5c(c4)OC(F)(F)O5)CO3)c2c1` [AB-0080, N-((2,2-difluorobenzo[d][1,3]dioxol-5-yl)methyl)-2-(2-(6-methoxyquinolin-4-yl)ethyl)-trans-1,3-dioxan-5-amine] were 2 µg/mL (≈ 4.36 µM) and 1 µg/mL (≈ 2.18 µM).
On the same counts, the results for `COc1ccc2nccc(CC[C@H]3OC[C@H](NCc4ccc(OC(F)(F)F)cc4)CO3)c2c1` [AB-0081, 2-(2-(6-methoxyquinolin-4-yl)ethyl)-N-(4-(trifluoromethoxy)benzyl)-trans-1,3-dioxan-5-amine] are 4 µg/mL (≈ 8.65 µM) and 2 µg/mL (≈ 4.32 µM).
As for `COc1ccc2nccc(CC[C@H]3OC[C@H](NCc4ccc(C(C)(C)C)cc4)CO3)c2c1` [AB-0082, N-(4-(tert-butyl)benzyl)-2-(2-(6-methoxyquinolin-4-yl)ethyl)-trans-1,3-dioxan-5-amine], the MIC with USA 300 strain of MRSA amounted to 4 µg/mL (≈ 9.2 µM); against S. aureus ATCC 29213 it was 2 µg/mL (≈ 4.6 µM).
Taken in the same sequence, the figures for `COc1ccc2ncc(F)c(C(O)C[C@H]3OC[C@H](NCc4cc5c(cn4)OCCO5)CO3)c2n1` (stereo partly drawn) [AB-0083, 2-(5-(((2,3-dihydro-[1,4]dioxino[2,3-c]pyridin-7-yl)methyl)amino)-trans-1,3-dioxan-2-yl)-1-(3-fluoro-6-methoxy-1,5-naphthyridin-4-yl)ethanol] were 1 µg/mL (≈ 2.12 µM) and 0.5 µg/mL (≈ 1.06 µM).
As for `COc1ccc2nccc(CC[C@H]3OC[C@H](NCc4ccc(C(F)F)cc4)CO3)c2c1` [AB-0085, N-(4-(difluoromethyl)benzyl)-2-(2-(6-methoxyquinolin-4-yl)ethyl)-trans-1,3-dioxan-5-amine], the MIC in the test with USA 300 strain of MRSA was 4 µg/mL (≈ 9.34 µM); against S. aureus ATCC 29213 it was 2 µg/mL (≈ 4.67 µM).
